Test results taken from patent US20240158446A1, “CYCLIC COMPOUND HAVING SELECTIVE INHIBITORY ACTION ON KRAS OVER HRAS AND NRAS” (CHUGAI SEIYAKU KABUSHIKI KAISHA, priority 2021, published 2024).
Where two headings read alike, the source gives them in different places. *1 amine or outer side, *2 acyl side, *3 side chain or, on linkers, in order; H or OH if unused. Where a SMILES comes first, the peptide text is derived from it. Bridges are numbered along the chain shown (N, C = ends). [ ]: non-standard residue; d: D form. The star is where a group is joined. hPhe(3-Cl-4-CF3) = N[C@@H](CCc1ccc(C(F)(F)F)c(Cl)c1)C(=O)O; NPrPhe(4-CF3) = CCCN[C@@H](Cc1ccc(C(F)(F)F)cc1)C(=O)O; X7 = CCN([C@H](C(=O)[*:2])C1CCCC1)[*:1]; NMeGly(cPent) = CN[C@H](C(=O)O)C1CCCC1; NMeD = CN[C@@H](CC(=O)O)C(=O)O; NMeL = CN[C@@H](CC(C)C)C(=O)O; Morpholide = C1CN(*)CCO1; Ac5c = NC1(C(=O)O)CCCC1; Aze = O=C(O)[C@@H]1CCN1; NcPrGly = O=C(O)CNC1CC1; NEtG = CCNCC(=O)O; Sar = CNCC(=O)O

Tests used:
[1] = target: GDP-bound KRAS wild-type protein (Homo sapiens, UniProt P01116); assay: Binding to KRAS by surface plasmon resonance (SPR), Single Cycle Kinetics; conditions: GDP-bound KRAS wild-type protein, read-out: KRAS KD
[2] = target: GDP-bound NRAS wild-type protein (Homo sapiens, UniProt P01111); assay: Binding to NRAS by surface plasmon resonance (SPR), Single Cycle Kinetics; conditions: SPR, GDP-bound NRAS wild-type protein vs GDP-bound KRAS wild-type protein
[3] = target: GDP-bound HRAS wild-type protein (Homo sapiens, UniProt P01112); assay: Binding to HRAS by surface plasmon resonance (SPR), Single Cycle Kinetics; conditions: SPR, GDP-bound HRAS wild-type protein vs GDP-bound KRAS wild-type protein
[4] = SPR Single Cycle Kinetics, 1:1 binding model

Chain of GDP-bound HRAS wild-type protein (P01112 whole entry): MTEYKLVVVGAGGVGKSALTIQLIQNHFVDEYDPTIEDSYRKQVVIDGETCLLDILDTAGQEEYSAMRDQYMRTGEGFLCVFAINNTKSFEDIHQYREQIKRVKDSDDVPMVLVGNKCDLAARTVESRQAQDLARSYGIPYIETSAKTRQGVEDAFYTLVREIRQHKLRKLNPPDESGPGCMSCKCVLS
Chain of GDP-bound NRAS wild-type protein (P01111 whole entry): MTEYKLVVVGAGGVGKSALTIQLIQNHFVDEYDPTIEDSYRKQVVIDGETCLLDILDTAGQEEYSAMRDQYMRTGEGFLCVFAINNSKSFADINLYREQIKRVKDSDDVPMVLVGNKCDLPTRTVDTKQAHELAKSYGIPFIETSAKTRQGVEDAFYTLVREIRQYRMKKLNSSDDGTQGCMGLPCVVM
Chain of GDP-bound KRAS wild-type protein (P01116 whole entry): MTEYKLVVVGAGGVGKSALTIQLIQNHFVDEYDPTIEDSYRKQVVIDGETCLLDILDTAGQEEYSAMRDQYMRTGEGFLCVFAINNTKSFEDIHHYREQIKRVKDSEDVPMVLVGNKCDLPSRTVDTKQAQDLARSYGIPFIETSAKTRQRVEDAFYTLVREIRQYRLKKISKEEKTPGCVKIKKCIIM

| Kd [1, 4] [nM] | Kd ([1]; SPR, Single Cycle Kinetics) [nM] | Structure (SMILES) | NRAS/KRAS (ratio of KD value for NRAS to KD value for KRAS) [2] | HRAS/KRAS (ratio of KD value for HRAS to KD value for KRAS) [3] |
| --- | --- | --- | --- | --- |
| 0.5 |  | CCCN1C(=O)CN(C)C(=O)CN(CC)C(=O)[C@H]([C@@H](C)CC)NC(=O)[C@H](CC(C)C)N(C)C(=O)C[C@@H](C(=O)N2CCOCC2)N(C)C(=O)[C@H](C2CCCC2)N(C)C(=O)C2(CCCC2)NC(=O)[C@@H]2CCCN2C(=O)[C@H](CCc2ccc(C(F)(F)F)c(Cl)c2)NC(=O)CN(C)C(=O)[C@@H]1Cc1ccc(C(F)(F)F)cc1 [PP0145] ([NMeL]I[NEtG][Sar][NPrPhe(4-CF3)][Sar][hPhe(3-Cl-4-CF3)]P[Ac5c][NMeGly(cPent)][NMeD]-Morpholide; lactam N-11) | B (a compound having 3 or more and less than 10 is denoted as B) | B (a compound having 3 or more and less than 10 is denoted as B) |
|  | 3.2 | C=CC[C@H]1C(=O)N[C@@H]([C@@H](C)CC)C(=O)N(C)CC(=O)N(C)[C@H]2CCCCCN(C2=O)[C@@H](Cc2ccc(C(F)(F)F)cc2)C(=O)N(C)CC(=O)N[C@@H](CCc2cc(F)c(C(F)(F)F)c(F)c2)C(=O)N2C[C@H](OCC)C[C@H]2C(=O)N[C@](C)(CC=C)C(=O)N(C)[C@@H](C2CCCC2)C(=O)N(C)[C@H](C(=O)N2CCOCC2)CC(=O)N1C [PP0878] | B (a compound having 3 or more and less than 10 is denoted as B) | B (a compound having 3 or more and less than 10 is denoted as B) |
| 1.7 |  | CCCN1C(=O)CN(C)C(=O)CN(C)C(=O)[C@H]([C@@H](C)CC)NC(=O)[C@H](CC(C)C)N(C)C(=O)C[C@@H](C(=O)N2CCOCC2)N(C)C(=O)[C@H](C2CCCC2)N(C)C(=O)[C@@H](C)NC(=O)[C@@H]2CCCN2C(=O)[C@H](CCc2ccc(C(F)(F)F)c(Cl)c2)NC(=O)CN(C)C(=O)[C@@H]1Cc1ccc(C(F)(F)F)cc1 [PP0150] ([NMeL]I[Sar][Sar][NPrPhe(4-CF3)][Sar][hPhe(3-Cl-4-CF3)]P[dA][NMeGly(cPent)][NMeD]-Morpholide; lactam N-11) | B (a compound having 3 or more and less than 10 is denoted as B) | C (A compound having a KD ratio of 0.1 or more and less than 3 is denoted as C) |
| 0.56 |  | CCCN1C(=O)[C@@H]2CCN2C(=O)CN(C2CC2)C(=O)[C@H]([C@@H](C)CC)NC(=O)[C@H](CC(C)C)N(C)C(=O)C[C@@H](C(=O)N2CCOCC2)N(C)C(=O)[C@H](C2CCCC2)N(C)C(=O)C2(CCCC2)NC(=O)[C@@H]2CCCN2C(=O)[C@H](CCc2ccc(C(F)(F)F)c(Cl)c2)NC(=O)CN(C)C(=O)[C@@H]1Cc1ccc(C(F)(F)F)cc1 [PP0273] ([NMeL]I[NcPrGly][Aze][NPrPhe(4-CF3)][Sar][hPhe(3-Cl-4-CF3)]P[Ac5c][NMeGly(cPent)][NMeD]-Morpholide; lactam N-11) | C (A compound having a KD ratio of 0.1 or more and less than 3 is denoted as C) | B (a compound having 3 or more and less than 10 is denoted as B) |
| 5.9 |  | CC[C@H](C)[C@@H]1NC(=O)[C@H](CC(C)C)N(C)C(=O)C[C@@H](C(=O)N2CCOCC2)N(C)C(=O)[C@H](C2CCCC2)N(C)C(=O)C2(CCCC2)NC(=O)[C@@H]2CCCN2C(=O)[C@H](CCc2ccc(C(F)(F)F)c(Cl)c2)NC(=O)CN(C)C(=O)[C@H](C2CCCC2)N(CC)C(=O)CN(C)C(=O)CN(C)C1=O [PP0024] ([NMeL]I[Sar][Sar][X7][Sar][hPhe(3-Cl-4-CF3)]P[Ac5c][NMeGly(cPent)][NMeD]-Morpholide; lactam N-11) | B (a compound having 3 or more and less than 10 is denoted as B) | C (A compound having a KD ratio of 0.1 or more and less than 3 is denoted as C) |
